Nc1cccc(C(=O)O)c1O
solubility (mole fraction)
Settings	293.2 K	298.2 K	303.2 K	308.2 K	313.2 K
in n-propanol	0.000339	0.00046	0.000522	0.00058	0.000681
in water	0.00012	0.000122	0.000139	0.000148	0.000165

From BigSolDB 2.1
